Measured values reported in patent US11419335B2, “N-arylated analogues and uses thereof” (University of Florida Research Foundation, Incorporated, priority 2016, dated 2022).
Read-outs that look alike come from different tables or passages of the source. Marks after values point to notes of the source that are not given here. Blank lines part the entries; values can stand above or below the compound they belong to.

Experiments:
MRSA BAA-44 = assay: MIC broth microdilution, MRSA BAA-44; assay type: cell-based, Staphylococcus aureus
Experimental: (§1) The minimum inhibitory concentration (MIC) for each tested compound was determined by the broth microdilution method as recommended by the Clinical and Laboratory Standards Institute (CLSI). In a 96-well plate, eleven two-fold serial dilutions of each compound were made in a final volume of 100 μL Luria Broth. Each well was inoculated with ˜10^5 bacterial cells at the initial time of incubation, prepared from a fresh log phase culture (OD600 of 0.5 to 1.0 depending on bacterial strain). […] (MIC values were supported by spectrophotometric readings at OD600). DMSO served as our vehicle and negative control in each microdilution MIC assay. DMSO was serially diluted with a top concentration of 1% v/v.
(§2) Each well was inoculated with ˜10^5 bacterial cells at the initial time of incubation, prepared from a fresh log phase culture (OD600 of 0.5 to 1.0 depending on bacterial strain). […] The concentration range tested for each compound during this study was 0.10 to 100 μM. DMSO served as our vehicle and negative control in each microdilution MIC assay. DMSO was serially diluted with a top concentration of 1% v/v. All MIC values were obtained from a minimum of three independent experiments.

MRSA BAA-1707 = assay: MIC broth microdilution, MRSA BAA-1707; assay type: cell-based, Staphylococcus aureus
Summary of the method: (§3)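 CLSI broth microdilution in Luria Broth with eleven two-fold dilutions across 0.10 to 100 μM, inoculated with ~10^5 cells from log-phase culture. Values come from at least three independent experiments.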

[1] = tested on: MRSA-1 (clinical isolate); assay: MIC broth microdilution, MRSA-1; assay type: cell-based, Staphylococcus aureus
Experimental: as §1, §2

[2] = tested on: methicillin-resistant Staphylococcus aureus MRSA-2 (clinical isolate); assay: MIC broth microdilution, MRSA-2; assay type: cell-based
Summary of the method: (§4)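 CLSI broth microdilution in Luria Broth: eleven two-fold dilutions (0.10–100 μM), ~10^5 log-phase cells per well, 16–18 h at 37 °C. MIC was the lowest concentration preventing growth, supported by OD600. DMSO up to 1% v/v was the vehicle; values come from at least three independent experiments.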

[3] = tested on: human red blood cells (hRBC); assay: Hemolysis of red blood cells; assay type: cell-based
Summary of the method: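 hRBCs (2% suspension) exposed to compounds at 0.2–200 μM (ten-point dose-response) for 1 h at 37 °C; after centrifugation, haemoglobin release read as supernatant OD at 405 nm. DMSO set as 0% and Triton X as 100% haemolysis; HC50 from dose-response curves, three independent experiments.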

[4] = tested on: SA-129 (clinical isolate); assay: MIC broth microdilution, SA-129; assay type: cell-based, Staphylococcus aureus
Experimental: as §1, §2

[5] = tested on: methicillin-sensitive Staphylococcus aureus ATCC 29213; assay: MIC broth microdilution, S. aureus 29213; assay type: cell-based
Summary of the method: as §3

[6] = tested on: methicillin-resistant Staphylococcus epidermidis (MRSE strain ATCC 35984); assay: MIC broth microdilution, MRSE 35984; assay type: cell-based; settings: for MIC S. epidermidis MRSE 35984: Table 1A; for MIC MRSE 35984: Table 4
Summary of the method: as §4

[7] = tested on: SA-156 (clinical isolate); assay: MIC broth microdilution, SA-156; assay type: cell-based, Staphylococcus aureus
Experimental: as §1, §2

[8] = tested on: Acinetobacter baumannii (ATCC 1794); assay: MIC broth microdilution, A. baumannii 1794; assay type: cell-based; settings: for MIC: Acinetobacter baumannii, ATCC1794; for MIC A. baumannii 1794: Table 1A
Summary of the method: as §4

[9] = tested on: vancomycin-resistant Enterococcus faecium (VRE strain ATCC 700221); assay: MIC broth microdilution, VRE 700221; assay type: cell-based; settings: for MIC E. faecium VRE 700221: Table 1A; for MIC VRE 700221: Table 4
Summary of the method: as §4

[10] = tested on: SA-138 (clinical isolate); assay: MIC broth microdilution, SA-138; assay type: cell-based, Staphylococcus aureus
Experimental: as §1, §2

[11] = tested on: Pseudomonas aeruginosa (PAO1); assay: MIC broth microdilution, PAO1; assay type: cell-based
Summary of the method: as §4

[12] = tested on: SA-147 (clinical isolate); assay: MIC broth microdilution, SA-147; assay type: cell-based, Staphylococcus aureus
Experimental: as §1, §2

MIC (MRSA BAA-44; Staphylococcus aureus, Table 3): 4.69 µM | MIC (MRSA BAA-1707; Staphylococcus aureus, Table 1, read-out: MIC MRSA BAA-1707): 2.35 µM | MIC (MRSA BAA-1707; Staphylococcus aureus, Table 2, read-out: MRSA BAA-1707 MIC): 2.35 µM | MIC (MRSA BAA-1707; Staphylococcus aureus, Table 4, read-out: MIC MRSA 1707): 2.35 µM | MIC MRSA BAA-1707 (MRSA BAA-1707; Table 3): 2.35^a μM | MIC ([1]; Staphylococcus aureus, MRSA, Table 3): 6.25 µM | MIC ([2]; Staphylococcus aureus, BAA-1707 / MRSA, MRSA-2 and MRSA BAA-1707, read-out: MIC against two MRSA strains): 2.35 to 4.69 µM | MIC ([2]; Staphylococcus aureus, MRSA, Table 1, read-out: MIC MRSA-2): 4.69 µM | MIC ([2]; Staphylococcus aureus, MRSA, Table 4, read-out: MIC MRSA-2): 4.69 µM | MIC ([2]; Staphylococcus aureus, MRSA, Table 3, read-out: MIC MRSA-2): 3.13 µM | MIC MRSA-2 ([2]; Table 1A): 4.69^a | MIC ([4]; Staphylococcus aureus, Table 3): 4.69 µM | MIC ([5]; Staphylococcus aureus, ATCC29213, Table 3): 4.69 µM | MIC ([6]; Staphylococcus epidermidis, Table 1, read-out: MIC MRSE 35984): 4.69 µM | MIC ([6]; Staphylococcus epidermidis, Table 2, read-out: MRSE 35984 MIC): 4.69 µM | MIC S. epidermidis MRSE 35984 [6]: 4.69^a | MIC MRSE 35984 [6]: 4.69a micromolar | MIC ([7]; Staphylococcus aureus, Table 3): 6.25 µM | MIC ([8]; Table 1, read-out: MIC A. baumannii 1794): 37.5 µM | MIC ([8]; Table 4, read-out: MIC A. bau. 1794): 37.5 µM | MIC A. baumannii 1794 [8]: 37.5^a | MIC ([9]; Table 1, read-out: MIC VRE 700221): 3.13 µM | MIC E. faecium VRE 700221 [9]: 3.13 µM | MIC ([9]; Table 2, read-out: VRE 700221 MIC): 3.13 µM | MIC VRE 700221 [9]: 3.13 µM | MIC ([10]; Staphylococcus aureus, Table 3): 6.25 µM | MIC ([11]; Pseudomonas aeruginosa, PAO1, Table 1): > 100 µM | MIC PAO1 ([11]; Table 1A): > 100 µM | MIC PAO1 ([11]; Table 4): >100 µM | MIC ([12]; Staphylococcus aureus, Table 3): 4.69 µM
SMILES: CCCCCCCCCCCCCCCCn1cc[n+](Cc2ccccc2)c1C [NH125, 3-benzyl-1-hexadecyl-2-methyl-1H-imidazol-3-ium bromide, reference compound]
hemolytic activity [3]: potent hemolytic activities | HC50 ([3]; human, 1 h, pH 7.2): 35.6 µM

SMILES: CCCCCCCCCCCCCCCCn1cc(-c2ccccc2)[n+](C)n1.[I-] [Compound 30]
MIC MRSA BAA-44 (MRSA BAA-44; Table 1B): 4.69^a μM | MIC MRSA BAA-44 (MRSA BAA-44; Table 3): 4.69^a μM | MIC (MRSA BAA-1707; Table 1B, read-out: MIC MRSA BAA-1707): 3.13 µM | MIC (MRSA BAA-1707; Table 2A, read-out: MRSA BAA-1707 MIC): 3.13 µM | MIC (MRSA BAA-1707; Table 3, read-out: MIC MRSA BAA-1707): 3.13 µM | MIC MRSA 1707 (MRSA BAA-1707; Table 4): 3.13 µM | MIC MRSA-1 ([1]; Table 1B): 4.69^a μM | MIC MRSA-1 ([1]; Table 3): 4.69^a μM | MIC MRSA-2 ([2]; Table 1A): 3.13 µM | MIC ([2]; Table 1B, read-out: MIC MRSA-2): 6.25 µM | MRSA-2 MIC ([2]; Table 2A): 3.13 µM | MIC ([2]; Table 3, read-out: MIC MRSA-2): 6.25 µM | MIC MRSA-2 ([2]; Table 4): 3.13 µM | HC50 ([3]; Table 1A): 12.6 µM | RBC HC50 ([3]; Table 4, concentration required to lyse 50% of red blood cells): 12.6 µM | MIC ([4]; Table 1B): 1.56 µM | MIC ([4]; Table 3): 1.56 µM | MIC ([5]; Table 1B): 3.13 µM | MIC ([5]; Table 3): 3.13 µM | MIC S. epidermidis MRSE 35984 [6]: 1.56 µM | MIC ([6]; Table 2A, read-out: MRSE 35984 MIC): 1.56 µM | MIC MRSE 35984 [6]: 1.56 µM | MIC SA-156 ([7]; Table 1B): 2.35^s μM | MIC SA-156 ([7]; Table 3): 2.35^a μM | MIC A. baumannii 1794 ([8]; in µM): 12.5 | MIC A. bau. 1794 ([8]; Table 4): 12.5 µM | MIC E. faecium VRE 700221 [9]: 3.13 µM | VRE MIC ([9]; Table 2A): 3.13 µM | MIC VRE 700221 [9]: 3.13 µM | MIC SA-138 ([10]; Table 1B): 2.35^a μM | MIC SA-138 ([10]; Table 3): 2.35^a μM | MIC PAO1 ([11]; Table 1A): > 100 µM | MIC PAO1 ([11]; Table 4): >100 µM | MIC ([12]; Table 1B): 1.56 µM | MIC ([12]; Table 3): 1.56 µM
